Reference: patent US10881110B2, “Herbicidal compositions comprising isoxazolo[5,4-b]pyridines” (BASF SE, priority 2014, dated 2021)

Assays:
Experiment in all cases: greenhouse post-emergence herbicidal test
DIGSA = format: in vivo, Digitaria sanguinalis
Method: (§1) The culture containers used were plastic pots containing medium loamy sand with approximately 4.6% of humus and 69.9% sand as substrate. The seeds of the test plants were sown separately for each species.
(§2) For the post-emergence treatment, the test plants were grown to a plant height of from 1 to 15 cm, depending on the plant habit, and only then treated with the active compounds which had been suspended or emulsified in water. To this end, the test plants were either sown directly, and grown in the same containers, or they were first grown separately as seedlings and transplanted into the test containers a few days prior to treatment.
(§3) Depending on the species, the plants were kept at 10-25° C. and 20-35° C., respectively.
(§4) The test period extended over 1 to 3 weeks. During this time, the plants were tended and their response to the individual treatments was evaluated 20 days after treatment except mentioned otherwise.
(§5) Evaluation was carried out using a scale from 0 to 100. 100 means no emergence of the plants, or complete destruction of at least the above-ground parts, and 0 means no damage or normal course of growth.
(§6) The respective stated components A and B, and, if appropriate, C, were formulated as a 10% by weight strength emulsion concentrate and, with addition of the amount of solvent system, introduced into the spray liquor used for applying the active compound. In the examples, the solvent used was water.
(§7) In the examples below, using the method of S. R. Colby (1967) “Calculating synergistic and antagonistic responses of herbicide combinations”, Weeds 15, p. 22 ff., the value E, which is expected if the activity of the individual active compounds is only additive, was calculated. E=X+Y−(X·Y/100)

CHEAL = format: in vivo, Chenopodium album
Method: as §1, §2, §3, §4, §5, §6, §7

AMARE = format: in vivo, Amaranthus retroflexus
Method: as §1, §2, §3, §4, §5, §6, §7

CONAR = format: in vivo, Convolvulus arvensis; parameters: key: rating on a scale from 0 to 100
Method: as §1, §2, §3, §4, §5, §6, §7

IPOHE = format: in vivo, Ipomoea hederacea; parameters: key to herbicidal activity against IPOHE found: rating on a scale from 0 to 100; settings: post emergence, 20 days after treatment
Procedure, shortened: (§8)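 Herbicidal activity scored on a 0 (no damage) to 100 (plants destroyed) scale, usually 20 days after water-based spraying of 1–15 cm plants grown in loamy sand at 10-25 °C or 20-35 °C depending on species. Components were applied from 10% emulsion concentrates; Colby's E=X+Y−(X·Y/100) gives the additive expectation.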

STEME = format: in vivo, Stellaria media; parameters: key: scale 0 to 100
Method: as §1, §2, §3, §4, §5, §6, §7

POLCO = format: in vivo, Polygonum convolvulus; parameters: key to herbicidal activity against POLCO found: rating on a scale from 0 to 100; settings: post emergence
Procedure, shortened: as §8

GERDI = format: in vivo, Geranium dissectum; parameters: key to herbicidal activity against GERDI found: rating on a scale from 0 to 100; settings: post emergence
Procedure, shortened: (§9)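 Seeds sown per species in loamy sand with roughly 4.6% humus; seedlings raised to 1 to 15 cm, then treated with water-borne spray of a 10% by weight emulsion concentrate. Response assessed on day 20 from 0 (normal growth) to 100 (destroyed).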

POLAV = format: in vivo, Polygonum aviculare; parameters: key: rating on a scale from 0 to 100
Method: as §1, §2, §3, §4, §5, §6, §7

POLPE = format: in vivo, Persicaria maculosa; parameters: key: scale 0 to 100
Method: as §1, §2, §3, §4, §5, §6, §7

GALAP = format: in vivo, Galium aparine; parameters: key to herbicidal activity against GALAP found: rating on a scale from 0 to 100; settings: post emergence; 400 g/ha a.i.
Procedure, shortened: as §8

ABUTH = format: in vivo, Abutilon theophrast; parameters: key to herbicidal activity against ABUTH found: rating on a scale from 0 to 100; settings: post emergence; 200 g/ha a.i.
Procedure, shortened: as §9

PAPRH = format: in vivo, Papaver rhoeas; parameters: key: rating on a scale from 0 to 100
Procedure, shortened: as §9

VIOAR = format: in vivo, Viola arvensis; parameters: key to herbicidal activity against VIOAR found / herbicidal activity against VIOLA found: rating on a scale from 0 to 100; settings: post emergence
Procedure, shortened: as §8

MATCH = format: in vivo, Matricaria recutita; parameters: key to herbicidal activity against MATCH found: rating on a scale from 0 to 100; settings: post emergence
Procedure, shortened: as §9

LAMAM = format: in vivo, Lamium amplexicaule; parameters: key: scale 0 to 100
Method: as §1, §2, §3, §4, §5, §6, §7

SASKR = format: in vivo, Salsola kali; parameters: key: scale 0 to 100
Method: as §1, §2, §3, §4, §5, §6, §7

ERICA = format: in vivo, Conyza canadensis; settings: Erigeron canadensis, post-emergence, 480 h, post emergence; 9.375 g/ha a.i.; read-out: herbicidal activity against ERICA found
Procedure, shortened: as §9

AMBEL = format: in vivo, Ambrosia artemisiifolia; parameters: key: rating on a scale from 0 to 100
Method: as §1, §2, §3, §4, §5, §6, §7

[1] = a.i. g/ha: I.1 31.25, B.76 225, 20 days after treatment
[2] = a.i. g/ha: I.1 62.5, B.76 225, 20 days after treatment
[3] = a.i. g/ha: I.1 31.25, B.190 62.5, 20 days after treatment
[4] = a.i. g/ha: I.1 15.6, B.190 62.5, 20 days after treatment

CC(C)c1ccc(NC(=O)N(C)C)cc1 [B.76, isoproturon]
herbicidal activity against DIGSA found (DIGSA; [1]): 30% | herbicidal activity against DIGSA found (DIGSA; [2]): 30% | herbicidal activity against CHEAL found (CHEAL; [1]): 65% | herbicidal activity against CHEAL found (CHEAL; [2]): 65% | herbicidal activity against AMARE found (AMARE; [1]): 50% | herbicidal activity against CONAR found (CONAR; [2]): 65%

Cc1ccc(NC(=O)N(C)C)cc1Cl [B.190, chlorotoluron]
herbicidal activity against IPOHE found (IPOHE; a.i. g/ha: I.1 15.6, B.190 62.5): 60% | herbicidal activity against IPOHE found (IPOHE; a.i. g/ha: I.1 31.25, B.190 62.5): 60% | herbicidal activity against STEME found (STEME; [3]): 70% | herbicidal activity against POLCO found (POLCO; [4]): 50% | herbicidal activity against POLCO found (POLCO; [3]): 50% | herbicidal activity against GERDI found (GERDI; [3]): 60% | herbicidal activity against CHEAL found (CHEAL; [4]): 95% | herbicidal activity against AMARE found (AMARE; [4]): 40% | herbicidal activity against AMARE found (AMARE; [3]): 40% | herbicidal activity against POLAV found (POLAV; [4]): 50%

Cc1cc(Cl)ccc1OCC(=O)O [B.164, MCPA]
herbicidal activity against POLPE found (POLPE; 200 g/ha a.i.): 65 | herbicidal activity against POLPE found (POLPE; 400 g/ha a.i.): 80 | herbicidal activity against STEME found (STEME; 100 g/ha a.i.): 50 | herbicidal activity against STEME found (STEME; 200 g/ha a.i.): 60 | herbicidal activity against STEME found (STEME; 400 g/ha a.i.): 80 | herbicidal activity against POLCO found (POLCO; 200 g/ha a.i.): 50 | herbicidal activity against POLCO found (POLCO; 400 g/ha a.i.): 50 | herbicidal activity against GERDI found (GERDI; 100 g/ha a.i.): 65 | herbicidal activity against GALAP found (GALAP): 30 | herbicidal activity against ABUTH found (ABUTH): 80 | herbicidal activity against CONAR found (CONAR; 200 g/ha a.i.): 90 | herbicidal activity against CONAR found (CONAR; 400 g/ha a.i.): 90 | herbicidal activity against PAPRH found (PAPRH; 100 g/ha a.i.): 60 | herbicidal activity against PAPRH found (PAPRH; 200 g/ha a.i.): 65 | herbicidal activity against VIOAR found (VIOAR; 100 g/ha a.i.): 60 | herbicidal activity against VIOAR found (VIOAR; 200 g/ha a.i.): 65 | herbicidal activity against VIOAR found (VIOAR; 400 g/ha a.i.): 70 | herbicidal activity against MATCH found (MATCH; 400 g/ha a.i.): 50 | herbicidal activity against POLAV found (POLAV; 100 g/ha a.i.): 70 | herbicidal activity against POLAV found (POLAV; 200 g/ha a.i.): 85 | herbicidal activity against POLAV found (POLAV; 400 g/ha a.i.): 85 | herbicidal activity against LAMAM, found (LAMAM; 200 g/ha a.i.): 65 | herbicidal activity against LAMAM, found (LAMAM; 400 g/ha a.i.): 70

CS(=O)(=O)c1ccc(C(=O)C2C(=O)CCCC2=O)c([N+](=O)[O-])c1 [B.101, mesotrione]
herbicidal activity against SASKR found (SASKR; 9.375 g/ha a.i.): 75 | pest or weed control at 9.375 g/ha (GERDI; Geranium dissectum, post-emergence, 480 h, 9.375 g/ha a.i., read-out: herbicidal activity against GERDI found): 0% | pest or weed control at 9.375 g/ha (ERICA): 80% | herbicidal activity against PAPRH found (PAPRH; 9.375 g/ha a.i.): 35 | pest or weed control at 9.375 g/ha (MATCH; Matricaria chamomilla, post-emergence, 480 h, 9.375 g/ha a.i., read-out: herbicidal activity against MATCH found): 75% | herbicidal activity against AMBEL found (AMBEL; 9.375 g/ha a.i.): 80

Cc1nn(C)c(O)c1C(=O)c1ccc(C(F)(F)F)cc1S(C)(=O)=O [pyrasulfatole]
herbicidal activity against SASKAR found (SASKR; 10 g/ha a.i.): 90 | herbicidal activity against GERDI found (GERDI; 40 g/ha a.i.): 50 | herbicidal activity against CONAR found (CONAR; 10 g/ha a.i.): 60 | herbicidal activity against CONAR found (CONAR; 20 g/ha a.i.): 65 | herbicidal activity against CONAR found (CONAR; 40 g/ha a.i.): 85 | herbicidal activity against PAPRH found (PAPRH; 10 g/ha a.i.): 50 | herbicidal activity against PAPRH found (PAPRH; 20 g/ha a.i.): 65 | herbicidal activity against PAPRH found (PAPRH; 40 g/ha a.i.): 65 | herbicidal activity against VIOAR found (VIOAR; 10 g/ha a.i.): 0 | herbicidal activity against VIOAR found (VIOAR; 20 g/ha a.i.): 40 | herbicidal activity against VIOAR found (VIOAR; 40 g/ha a.i.): 60 | herbicidal activity against MATCH found (MATCH; 10 g/ha a.i.): 50 | herbicidal activity against MATCH found (MATCH; 40 g/ha a.i.): 50 | herbicidal activity against POLAV found (POLAV; 20 g/ha a.i.): 70

COc1cc(OC)nc(NC(=O)NS(=O)(=O)c2ncccc2C(=O)N(C)C)n1 [B.51, nicosulfuron]
herbicidal activity against POLPE found (POLPE; 20 g/ha a.i.): 95 | pest or weed control at 20 g/ha (MATCH; Matricaria chamomilla, post-emergence, 480 h, 20 g/ha a.i., read-out: herbicidal activity against MATCH found): 90% | herbicidal activity against AMBEL found (AMBEL; 20 g/ha a.i.): 80
